pIC50: −log10 of the molar value. Where two headings read alike, the source gives them in different places.
How the values were obtained:
HCT116 MTAP null cells = experiment: HCT116 proliferation assay, MTAP null cells (CellTiter-Glo, 6 days); format: cell-based; settings: read-out: Protif_ HCT116-MTAP null IC50
Summary of the method: (§1)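 Seed cells in RPMI 1640 supplemented with 10% FBS and incubate overnight at 37° C under 5% CO2. Treat with serially diluted compound (threefold steps, 8 or 9 points, highest 1 or 10 µM) or DMSO alone, then quantify viability by luminescence.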

HCT116 WT cells = experiment: HCT116 proliferation assay, WT cells (CellTiter-Glo, 6 days); format: cell-based; settings: read-out: Prolif_HCT116-WT IC50
Summary of the method: as §1

PRMT5/MEP50 = PRMT5/MEP50 (Homo sapiens, UniProt O14744); experiment: MTase-Glo methyl transferase assay, Method A (Histone H4 peptide, 1 µM MTA, 24 h pre-incubation); format: biochemical; parameters: made in house; settings: read-out: PRMT5 MTase Glo Ki (nM, Meth. A)
Sequence of PRMT5/MEP50 (O14744 whole entry): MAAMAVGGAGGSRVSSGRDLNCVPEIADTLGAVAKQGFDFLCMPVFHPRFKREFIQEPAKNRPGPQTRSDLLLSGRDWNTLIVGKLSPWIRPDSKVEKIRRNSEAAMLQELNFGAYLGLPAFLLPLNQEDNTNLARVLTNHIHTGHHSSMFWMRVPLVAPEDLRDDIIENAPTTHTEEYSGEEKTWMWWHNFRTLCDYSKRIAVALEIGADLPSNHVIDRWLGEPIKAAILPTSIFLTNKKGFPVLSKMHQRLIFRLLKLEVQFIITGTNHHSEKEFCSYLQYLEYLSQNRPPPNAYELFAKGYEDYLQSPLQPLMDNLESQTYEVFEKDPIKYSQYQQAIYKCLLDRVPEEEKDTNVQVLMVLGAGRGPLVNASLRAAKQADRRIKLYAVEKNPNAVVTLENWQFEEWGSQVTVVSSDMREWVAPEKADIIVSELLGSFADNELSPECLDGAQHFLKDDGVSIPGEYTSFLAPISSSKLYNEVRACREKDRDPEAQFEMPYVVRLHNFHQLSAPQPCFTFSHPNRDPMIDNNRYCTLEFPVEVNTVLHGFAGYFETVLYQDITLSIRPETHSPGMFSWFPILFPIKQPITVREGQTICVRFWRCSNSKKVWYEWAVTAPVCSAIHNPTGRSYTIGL
Sequence of PRMT5/MEP50 (Q9BQA1 whole entry partner): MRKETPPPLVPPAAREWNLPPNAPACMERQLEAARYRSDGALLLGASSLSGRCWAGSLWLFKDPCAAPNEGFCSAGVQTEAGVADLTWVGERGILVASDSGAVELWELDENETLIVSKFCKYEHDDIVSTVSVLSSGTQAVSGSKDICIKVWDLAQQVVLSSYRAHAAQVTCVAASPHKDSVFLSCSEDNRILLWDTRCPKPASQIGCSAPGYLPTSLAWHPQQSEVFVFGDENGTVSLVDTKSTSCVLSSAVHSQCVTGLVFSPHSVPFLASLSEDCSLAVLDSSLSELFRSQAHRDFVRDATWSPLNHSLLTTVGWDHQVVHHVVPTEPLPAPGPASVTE
Summary of the method: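 Luminescent SAH detection (MTase-Glo) after a 2 h room-temperature methylation of 1 µM biotinylated H4 (1-21) peptide by 10 nM PRMT5/MEP50 with 5 µM SAM, in 50 mM Tris pH 8.0.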

Row | Compound | pIC50 (HCT116 MTAP null cells; HCT116-MTAP null, 144 h) | pIC50 (HCT116 WT cells; Homo sapiens, HCT-116, 144 h) | Ki (PRMT5/MEP50) | pIC50 (HCT116 MTAP null cells; 144 h) | pIC50 (HCT116 MTAP null cells) | pIC50 (HCT116 WT cells)
1 | Cc1cc2cc(C(=O)N(Cc3ccc(OC4CC4)cn3)[C@H](C)c3ncccn3)ccc2nc1N [Example 376, 2-amino-N-((5-(cyclopropyloxy)-2-pyridinyl)methyl)-3-methyl-N-((1R)-1-(2-pyrimidinyl)ethyl)-6-quinolinecarboxamide] | 7.21 | 5.82 | 0.02 nM | – | – | –
2 | Cc1cc2cc(C(=O)N(Cc3ccccn3)Cc3ccc(C(F)(F)F)cn3)ccc2nc1N [Example 302, 2-amino-3-methyl-N-(2-pyridinylmethyl)-N-((5-(trifluoromethyl)-2-pyridinyl)methyl)-6-quinolinecarboxamide] | 6.44 | < 5.00 | 0.3 nM | – | – | –
3 | Cc1cc2cc(C(=O)N(Cc3ccc(C(F)(F)F)cn3)[C@@H]3CCCc4cccnc43)ccc2nc1N [Example 390, 2-amino-3-methyl-N-((8R)-5,6,7,8-tetrahydro-8-quinolinyl)-N-((5-(trifluoromethyl)-2-pyridinyl)methyl)-6-quinolinecarboxamide] | 7.64 | 6.34 | 0.25 nM | – | – | –
4 | Cc1cc2cc(C(=O)N(Cc3ccc(C#N)cn3)[C@H](C)c3ncccn3)c(Cl)cc2nc1N [Example 438, 2-amino-7-chloro-N-((5-cyano-2-pyridinyl)methyl)-3-methyl-N-((1R)-1-(2-pyrimidinyl)ethyl)-6-quinolinecarboxamide] | 6.43 | 5.06 | 0.76 nM | – | – | –
5 | Cc1cc2cc(C(=O)N(Cc3ccc(N4CCC(F)(F)C4)cn3)[C@H](C)c3ncccn3)ccc2nc1N [Example 358, 2-amino-N-((5-(3,3-difluoro-1-pyrrolidinyl)-2-pyridinyl)methyl)-3-methyl-N-((1R)-1-(2-pyrimidinyl)ethyl)-6-quinolinecarboxamide] | 7.28 | 5.86 | 2.5 nM | – | – | –
6 | C[C@H](c1ncccn1)N(Cc1ccc(C2=CCOCC2)nn1)C(=O)c1ccc2nc(N)c(Cl)cc2c1 [Example 334, 2-amino-3-chloro-N-((6-(3,6-dihydro-2H-pyran-4-yl)-3-pyridazinyl)methyl)-N-((1R)-1-(2-pyrimidinyl)ethyl)-6-quinolinecarboxamide] | 6.36 | < 5.00 | 0.34 nM | – | – | –
7 | Cc1cc2cc(C(=O)N(Cc3ccc(C(F)(F)F)cn3)[C@H]3CCCc4nccnc43)ccc2nc1N (single isomer, unassigned) [Example 522, 2-amino-3-methyl-N-((5 S)-5,6,7,8-tetrahydro-5-quinoxalinyl)-N-((5-(trifluoromethyl)-2-pyridinyl)methyl)-6-quinolinecarboxamide] | 6.06 | 5.25 | 49.9 nM | – | – | –
8 | Cc1cc2cc(C(=O)N(Cc3ccc(C(F)(F)F)cn3)[C@@H]3COC[C@H]3O)ccc2nc1N [Example 505, 2-amino-N-((3R,4S)-4-hydroxytetrahydro-3-furanyl)-3-methyl-N-((5-(trifluoromethyl)-2-pyridinyl)methyl)-6-quinolinecarboxamide] | 6.12 | 4.99 | 2.51 nM | – | – | –
9 | C[C@H](c1ncccn1)N(Cc1ccc(Cl)cn1)C(=O)c1cnc2nc(N)c(Br)cc2c1 [Example 414, 7-amino-6-bromo-N-((5-chloro-2-pyridinyl)methyl)-N-((1R)-1-(2-pyrimidinyl)ethyl)-1,8-naphthyridine-3-carboxamide] | 6.63 | 5.29 | 0.3 nM | – | – | –
10 | Cc1cc2cc(C(=O)N(Cc3ccc(C(F)(F)F)cn3)Cc3ncccc3F)ccc2nc1N [Example 320, 2-amino-N-((3-fluoro-2-pyridinyl)methyl)-3-methyl-N-((5-(trifluoromethyl)-2-pyridinyl)methyl)-6-quinolinecarboxamide] | – | 5.46 | 0.28 nM | 7.10 | – | –
11 | Cc1cc2cc(C(=O)N(Cc3ccc(C(F)(F)F)cn3)Cc3ncc(Cl)cc3F)ccc2nc1N [Example 304, 2-amino-N-((5-chloro-3-fluoro-2-pyridinyl)methyl)-3-methyl-N-((5-(trifluoromethyl)-2-pyridinyl)methyl)-6-quinolinecarboxamide] | 6.74 | 5.39 | 0.11 nM | – | – | –
12 | Cc1cc2cc(C(=O)N(Cc3ccc(NCC(F)(F)F)nn3)[C@H](C)c3ncccn3)ccc2nc1N [Example 378, 2-amino-3-methyl-N-((1R)-1-(2-pyrimidinyl)ethyl)-N-((6-((2,2,2-trifluoroethyl)amino)-3-pyridazinyl)methyl)-6-quinolinecarboxamide] | 6.47 | 5.16 | 0.04 nM | – | – | –
13 | Cc1cc2cc(C(=O)N(Cc3ccc(C#N)cn3)[C@@H]3CCC[C@H]3O)ccc2nc1N [Example 365, 2-amino-N-((5-cyanopyridin-2-yl)methyl)-N-((1R,2R)-2-hydroxycyclopentyl)-3-methylquinoline-6-carboxamide] | 6.41 | < 5.00 | 0.42 nM | – | – | –
14 | C[C@H](c1ncccn1)N(Cc1ccc(C(F)(F)F)nn1)C(=O)c1ccc2nc(N)c(Cl)cc2c1 (single isomer, unassigned) [Example 445] | 6.26 | < 5.00 | 0.53 nM | – | – | –
15 | Nc1nc2ncc(C(=O)N(Cc3ccc(C(F)(F)F)cn3)Cc3ncccc3F)cc2cc1Br [Example 321, 7-amino-6-bromo-N-((3-fluoro-2-pyridinyl)methyl)-N-((5-(trifluoromethyl)-2-pyridinyl)methyl)-1,8-naphthyridine-3-carboxamide] | 6.54 | < 5.00 | 0.15 nM | – | – | –
16 | CC[C@H](c1ncccn1)N(Cc1ccc(C(F)F)cn1)C(=O)c1cnc2nc(N)c(Br)cc2c1 (single isomer, unassigned) [Example 500] | 6.73 | 5.34 | 0.52 nM | – | – | –
17 | Cc1cc2cc(C(=O)N(Cc3ccc4[nH]ncc4c3)Cc3ccc(C(F)(F)F)cn3)ccc2nc1N [Example 369, 2-amino-N-(1H-indazol-5-ylmethyl)-3-methyl-N-((5-(trifluoromethyl)-2-pyridinyl)methyl)-6-quinolinecarboxamide] | – | – | 0.17 nM | – | 6.86 | 5.47
18 | Cc1cc2cc(C(=O)N(Cc3ccc(C#N)cn3)[C@@H]3CCOc4cccnc43)ccc2nc1N (single isomer, unassigned) [Example 519] | 7.21 | 5.77 | 0.13 nM | – | – | –
19 | Cc1cc2cc(C(=O)N(Cc3ccc(C(F)(F)F)cn3)[C@@H]3CCOc4ncccc43)ccc2nc1N (single isomer, unassigned) [Example 459] | 7.11 | 5.63 | 0.25 nM | – | – | –
20 | CO[C@@H](CN(Cc1ccc(C(F)(F)F)cn1)C(=O)c1cnc2nc(N)c(Br)cc2c1)C(F)(F)F (single isomer, unassigned) [Example 454] | 6.60 | 5.40 | 0.15 nM | – | – | –
21 | COc1ccc(CN(C(=O)c2ccc3nc(N)c(C)cc3c2)[C@@H]2CCC[C@H]2O)nn1 [Example 367, 2-amino-N-((1R,2R)-2-hydroxycyclopentyl)-N-((6-methoxypyridazin-3-yl)methyl)-3-methylquinoline-6-carboxamide] | 6.55 | < 5.00 | 0.41 nM | – | – | –
22 | Cc1cc2cc(C(=O)N(Cc3ccc(C#N)cn3)[C@H](C)c3ccccc3F)ccc2nc1N [Example 405, 2-amino-N-((5-cyano-2-pyridinyl)methyl)-N-((1R)-1-(2-fluorophenyl)ethyl)-3-methyl-6-quinolinecarboxamide] | 7.27 | 5.99 | 0.03 nM | – | – | –
